Results from article PMC10101059, “Rational Design of Stapled Antimicrobial Peptides to Enhance Stability and In Vivo Potency against Polymicrobial Sepsis” (Microbiology Spectrum, 2023).
≈ marks a conversion by molar mass, not a printed value.

How the values were obtained:
NDM1 K. pneumoniae = test: microbe, parasite or virus in culture; assay type: cell-based, Klebsiella pneumoniae
E. coli = test: microbe, parasite or virus in culture; assay type: cell-based, Escherichia coli
MDR A. baumannii 1033 = test: Checkerboard microdilution assay (FICI); assay type: cell-based, Acinetobacter baumannii
Description: (§1) The FICI was measured using a standard checkerboard microdilution assay ([57]). Two-fold dilutions of antibiotics were made across the x axis, and two-fold peptide dilutions were made across the y axis. Next, bacteria were added at 5 × 10^5 CFU/well (A. baumannii), followed by incubation at 37 ± 2°C for 16 to 20 h. FIC indices were calculated according to the following equations: FICI = FIC1 + FIC2; FIC1 = (MIC12 combined)/MIC1; FIC2 = (MIC12 combined)/MIC2. The combined efficacy was estimated as follows: FICI ≤ 0.5, synergistic; 0.5 to 1, additive; 1 to 2, indifferent; ≥2, antagonistic.

MDR A. baumannii 2998 = test: Checkerboard microdilution assay (FICI); assay type: cell-based, Acinetobacter baumannii
Description: as §1

MDR A. baumannii 3618 = test: Checkerboard microdilution assay (FICI); assay type: cell-based, Acinetobacter baumannii
Description: as §1

MDR A. baumannii 2088 = test: Checkerboard microdilution assay (FICI); assay type: cell-based, Acinetobacter baumannii
Description: as §1

MDR A. baumannii 2997 = test: Checkerboard microdilution assay (FICI); assay type: cell-based, Acinetobacter baumannii
Description: as §1

MDR A. baumannii 14B001 = test: microbe, parasite or virus in culture; assay type: cell-based, Acinetobacter baumannii
Description: as §1

MDR A. baumannii 2982 = test: microbe, parasite or virus in culture; assay type: cell-based, Acinetobacter baumannii
Description: as §1

MDR A. baumannii 1607 = test: microbe, parasite or virus in culture; assay type: cell-based, Acinetobacter baumannii
Description: as §1

MDR A. baumannii 1019 = test: microbe, parasite or virus in culture; assay type: cell-based, Acinetobacter baumannii
Description: as §1

MDR A. baumannii 1702 = test: microbe, parasite or virus in culture; assay type: cell-based, Acinetobacter baumannii
Description: as §1

MDR A. baumannii 2962 = test: microbe, parasite or virus in culture; assay type: cell-based, Acinetobacter baumannii
Description: as §1

MDR A. baumannii 921 = test: microbe, parasite or virus in culture; assay type: cell-based, Acinetobacter baumannii
Description: as §1

P. aeruginosae = test: microbe, parasite or virus in culture; assay type: cell-based, Pseudomonas aeruginosa
E. aerogenes = test: microbe, parasite or virus in culture; assay type: cell-based, Enterobacter aerogenes
S enterica = test: Checkerboard microdilution assay (FICI); assay type: cell-based, Salmonella enterica
[1] = MIC of each agent in combination, TP4-3 and D
[2] = Acinetobacter baumannii, read-out: Single drug treatment MIC

## C[C@H]1c2cccc(O)c2C(=O)C2=C(O)[C@]3(O)C(=O)C(C(N)=O)=C(O)[C@@H](N(C)C)[C@@H]3[C@@H](O)[C@@H]21 [D, doxycycline]
NDM1 K. pneumoniae; Klebsiella pneumoniae, read-out: Single drug treatment MIC
  MIC: 25 µM (≈ 11.1 µg/mL)
NDM1 K. pneumoniae; [1]
  TP4-3 and meropenem combined MIC: 3.13 µM
E. coli; Escherichia coli, read-out: Single drug treatment MIC
  MIC: 50 µM (≈ 22.2 µg/mL)
E. coli; [1]
  TP4-3 and meropenem combined MIC: 0.78 µM
MDR A. baumannii 1033; [2]
  MIC: 50 µM
MDR A. baumannii 1033; [1]
  TP4-3 and meropenem combined MIC: 12.5 µM
MDR A. baumannii 2998; [2]
  MIC: 50 µM
MDR A. baumannii 2998; [1]
  TP4-3 and meropenem combined MIC: 12.5 µM
MDR A. baumannii 3618; [2]
  MIC: 100 µM
MDR A. baumannii 3618; [1]
  TP4-3 and meropenem combined MIC: 25 µM
MDR A. baumannii 2088; [2]
  MIC: 100 µM
MDR A. baumannii 2088; [1]
  TP4-3 and meropenem combined MIC: 12.5 µM
MDR A. baumannii 2997; [2]
  MIC: 50 µM
MDR A. baumannii 2997; [1]
  TP4-3 and meropenem combined MIC: 25 µM
MDR A. baumannii 14B001; [2]
  MIC: 50 µM
MDR A. baumannii 14B001; [1]
  TP4-3 and meropenem combined MIC: 50 µM
MDR A. baumannii 2982; [2]
  MIC: 50 µM
MDR A. baumannii 2982; [1]
  TP4-3 and meropenem combined MIC: 25 µM
MDR A. baumannii 1607; [2]
  MIC: 100 µM
MDR A. baumannii 1607; [1]
  TP4-3 and meropenem combined MIC: 25 µM
MDR A. baumannii 1019; [2]
  MIC: 100 µM
MDR A. baumannii 1019; [1]
  TP4-3 and meropenem combined MIC: 12.5 µM
MDR A. baumannii 1702; [2]
  MIC: 50 µM
MDR A. baumannii 1702; [1]
  TP4-3 and meropenem combined MIC: 12.5 µM
MDR A. baumannii 2962; [2]
  MIC: 100 µM
MDR A. baumannii 2962; [1]
  TP4-3 and meropenem combined MIC: 25 µM
MDR A. baumannii 921; [2]
  MIC: 200 µM
MDR A. baumannii 921; [1]
  TP4-3 and meropenem combined MIC: 25 µM
P. aeruginosae; [1]
  TP4-3 and meropenem combined MIC: 12.5 µM
P. aeruginosae; Pseudomonas aeruginosa, read-out: Single drug treatment MIC
  MIC: 6.25 µM (≈ 2.78 µg/mL)
E. aerogenes; Klebsiella aerogenes, read-out: Single drug treatment MIC
  MIC: 3.13 µM (≈ 1.39 µg/mL)
E. aerogenes; [1]
  TP4-3 and meropenem combined MIC: 0.78 µM
S enterica; [1]
  TP4-3 and meropenem combined MIC: 1.56 µM
S enterica; Salmonella enterica, read-out: Single drug treatment MIC
  MIC: 6.25 µM
